Key:
[1] = tested on: Human pulmonary artery endothelial cells; experiment: Transendothelial electrical resistance (TER) of human pulmonary artery endothelial cell monolayers; format: cell-based; details: then HGF 20 ng/ml; for effect on HGF-induced increases in TER, in words: pretreatment LY294002 25 μM, UO126 10 μM, SB203580 20 μM, Ro-31-2880 10 μM
Procedure: (§1) Bovine pulmonary artery endothelial cells were purchased from the American Type Culture Collection (ATCC®, Rockville, Md.) and utilized at passage 19-24. Cells were maintained in Medium 199 (Life Technologies, Rockville, Md.) supplemented with 20% (v/v) colostrum-free bovine serum (CFBS) (Irvine Scientific, Santa Ana, Calif.), 15 μg/ml endothelial cell growth supplement (Upstate Biotechnology, Lake Placid, N.Y.), 1% antibiotic and antimycotic, and 0.1 mM non-essential amino acids (Life Technologies). Human pulmonary artery endothelial cells were purchased from Clonetics (Walkersville, Md.), cultured in EBM-2 complete medium (Clonetics) and utilized at passage 5-10. Human alveolar epithelial cells (A549) were purchased from ATCC® and cultured in the same medium as the bovine endothelial cells, except that the endothelial cell growth supplement was omitted. All cells were maintained at 37° C. in a humidified atmosphere of 5% CO2 and 95% air. Both endothelial cell types grew to contact-inhibited monolayers with the typical cobblestone morphology (Garcia, J. G. N. et al. (1995) J. Cell. Physiol. 163:510-522; Liu, F. et al. (2001) Am. J. Respir. Cell. Mol. Biol. 24:711-719).
Electrical resistance of EC monolayers was measured using electrical cell impedance sensor system (Applied Biophysics Inc., Troy, N.Y.) as described in Garcia, J. G. N. et al. (2000) J. Appl. Physiol. 89:2333-2343. Cells grown on gold microelectrodes (10^−3 cm^2) in polycarbonate wells act as insulating particles, and the resistance across the monolayers (transendothelial electrical resistance, or TER) is measured in real time. As cells adhere on the microelectrode and intercellular cell contacts are formed or in response to agents which increase junctional integrity, the TER increases (Garcia, J. G. N. et al. (2001) J. Clin. Invest. 108:689-711). In contrast, cell retraction, rounding, or loss of adhesion is reflected by decreases in TER (Garcia, J. G. N. et al. (2000) J. Appl. Physiol. 89:2333-2343). These measurements provide a highly sensitive biophysical assay that indicates the state of cell shape, focal adhesion, and endothelial barrier function (Giaever, I. and Keese, C. R. (1993) Nature 366:591-592; Tiruppathi, C. et al. (1992) Proc. Natl. Acad. Sci. USA 89:7919-7923). All electrical resistance data are presented as normalized values. Briefly, current was applied across the electrodes by a 4000 Hz AC voltage source with an amplitude of 1 V in series with a 1 MΩ resistance to approximate a constant current source (−1 μA). The small gold electrode and the larger counter electrode (1 cm^2) were connected to a phase-sensitive lock-in amplifier (5301A; EG&G Instruments Corp, Princeton, N.J.) with a built in differential preamplifier (5316A; EG&G Instruments Corp.). The in-phase and out-of-phase voltages between the electrodes were monitored in real time with the lock-in amplifier and converted to scalar measurements of transendothelial impedance, of which resistance was the primary focus. Transendothelial electrical resistance was monitored for 30 min to establish a baseline resistance (Ro) which, for human lung endothelium, was typically between 8 to 12×10^3 Ω (wells with R0<7×10^3 Ω or R0 >15×10^3 Ω were rejected). For some experiments, total TER was vectorially resolved into components reflecting resistance to current flow beneath the cell layer (α) and resistance to current flow between adjacent cells (Rb) as described in Garcia et al. (2000) supra utilizing the method of Giaiver and Keese which models the endothelial monolayer mathematically (Giaever, I. and Keese, C. R. (1993) Nature 366:591-592). Thus, changes in α reflect alterations in the net state of cell-matrix adhesion, whereas changes in Rb reflect alterations in the integrity of cell-cell adhesion. TER values from each microelectrode were pooled at discrete time points and plotted versus time as the mean±standard error of the mean (Garcia et al. (2000) supra). […]

[2] = tested on: human endothelial monolayers; experiment: F-actin immunofluorescent microscopy (cortical actin ring); format: cell-based; details: LY294002 25 μM, 1 hr or SB203580 20 μM, 30 min; HGF 20 ng/ml
Procedure: Endothelial cell monolayers grown on gelatinized cover slips were rinsed with M199 and incubated with agonists in the same medium in a 37° C. incubator (5% CO2). Monolayers were then rinsed with PBS (3×2 min), fixed in 4% paraformaldehyde for 10 min, again rinsed with PBS (3×2 min), and permeabilized with 0.25% Triton X-100 for 5 min. Cells were then washed briefly with PBS (3×2 min), blocked with PBS containing 2% BSA for 30 min and incubated with 1 Unit/mL of Texas Red-X phalloidin (Molecular Probes, Eugene, Oreg.), β-catenin antibody (Transduction Laboratories, Lexington, Ky.), glycogen synthase kinase-3 β (GSK-3β) (Santa Cruz Biotechnology, Inc., Santa Cruz, Calif.), or mono-phosphorylated MLC antisera (see Garcia, J. G. N. et al. (2001) J. Clin. Invest. 108:689-711) for 1 hr. After washing with PBS (3×2 min), cover slips were mounted on slides using SlowFade mounting medium (Molecular Probes). Cells were analyzed using a 60× oil objective on a Nikon Eclipse TE 300 microscope. Images were captured by Sony Digital Photo camera DKC 5000. […]
The effect of HGF on the spatial localization of polymerized actin in human endothelial monolayers was investigated by immunofluorescent microscopy. […] F-actin staining was assessed with Texas red phalloidin and myosin light chain staining evaluated with anti-monophosphorylated myosin light chain polyclonal antibody.

p42/44 ERK = p42/44 ERK activation by phospho-specific immunoblotting; format: cell-based, human; details: UO126 10 μM, 30 min; HGF 20 ng/ml, 15 min
Procedure: Endothelial cell monolayers grown to confluence in 12-well plates and challenged with HGF were lysed with 100 μl of 2×SDS sample buffer, and cell lysates were transferred into microcentrifuge tubes and boiled for 5 min. After a brief spin, proteins from 10 μl cell lysates were separated on 12% SDS-PAGE and transferred to nitrocellulose (Schleicher & Schuell, Keene, N.H.) (30V, 18 h). After blocking with PBST (PBS with 0.1% Tween 20) containing 5% non-fat milk for 1 hr, nitrocellulose blots were reacted with primary antibodies diluted in PBST containing 5% BSA for 1 hr, washed with PBST (3×10 min), incubated with peroxidase-conjugated secondary antibodies (goat anti-rabbit IgG, 1:10,000 dilution, Sigma; or goat anti-mouse IgG, 1:10,000 dilution, Bio-Rad Labs, Richmond, Calif.) diluted in PBST with 5% non-fat milk for 1 hr and again washed with PBST (3×10 min). Finally, immunoreactive proteins were detected using ECL. The relative intensities of the protein bands were quantified by scanning densitometry.
The MAP family of kinases (ERK1/2 and p38) are actively involved in agonist-induced endothelial cell actin reorganization and barrier regulation (Verin, A. D. et al. (2000) Am. J. Physiol: Lung Cell Molec. Phys. 279:L360-L370, 2000; Garcia, J. G. N. et al. (2001) J. Clin. Invest. 108:689-711) and have been noted to participate in HGF-mediated cell activation (Liang, C. C. and Chen, H. C. (2001) J. Biol. Chem. 276:21146-21152). These reports were confirmed in human endothelial cell monolayers incubated with HGF (20 ng/ml, for 1, 2, 5, 10, 15, 20, 30, 60, or 120 min) where activation of p42/44 ERK and p38 MAPK by HGF was detected by immunoblotting with antibodies that only recognize the phosphorylated (activated) forms of ERK or p38 MAPK. The activation of ERKs was evident at 5 min, maximal after 10-15 min with a gradual decline thereafter, but remaining sustained above basal levels for more than 2 hrs. […] The onset of HGF-mediated activation of p38 MAPK was similar to ERK, with plateau at 10-15 min. However, the duration of this response was much more truncated than ERK activation, beginning to decline by 20 min and returning to basal value by 1 hr.

[3] = tested on: Bovine Pulmonary Artery Endothelium; experiment: Transendothelial electrical resistance (TER) across bovine pulmonary artery endothelium; format: cell-based; details: VEGF 100 ng/ml, Sph 1-P 1 μM, HGF 20 ng/ml; for TER response in words: thrombin, 10-60 min; for changes in TER 30 min / changes in TER 60 min / changes in TER 10 min: vs vehicle control, ±SEM, thrombin 100 μM; for changes in TER 10 min: (+) increased, (−) decreased
Procedure: as §1, with “air.” for “air. Both endothelial cell types grew to contact-inhibited monolayers with the typical cobblestone morphology (Garcia, J. G. N. et al. (1995) J. Cell. Physiol. 163:510-522; Liu, F. et al. (2001) Am. J. Respir. Cell. Mol. Biol. 24:711-719).”
Electrical resistance of EC monolayers was measured using electrical cell impedance sensor system (Applied Biophysics Inc., Troy, N.Y.) as described in Garcia, J. G. N. et al. (2000) J. Appl. Physiol. 89:2333-2343. Cells grown on gold microelectrodes (10^−3 cm^2) in polycarbonate wells act as insulating particles, and the resistance across the monolayers (transendothelial electrical resistance, or TER) is measured in real time. As cells adhere on the microelectrode and intercellular cell contacts are formed or in response to agents which increase junctional integrity, the TER increases (Garcia, J. G. N. et al. (2001) J. Clin. Invest. 108:689-711). In contrast, cell retraction, rounding, or loss of adhesion is reflected by decreases in TER (Garcia, J. G. N. et al. (2000) J. Appl. Physiol. 89:2333-2343). These measurements provide a highly sensitive biophysical assay that indicates the state of cell shape, focal adhesion, and endothelial barrier function (Giaever, I. and Keese, C. R. (1993) Nature 366:591-592; Tiruppathi, C. et al. (1992) Proc. Natl. Acad. Sci. USA 89:7919-7923). All electrical resistance data are presented as normalized values. Briefly, current was applied across the electrodes by a 4000 Hz AC voltage source with an amplitude of 1 V in series with a 1 MΩ resistance to approximate a constant current source (−1 μA). The small gold electrode and the larger counter electrode (1 cm^2) were connected to a phase-sensitive lock-in amplifier (5301A; EG&G Instruments Corp, Princeton, N.J.) with a built in differential preamplifier (5316A; EG&G Instruments Corp.). The in-phase and out-of-phase voltages between the electrodes were monitored in real time with the lock-in amplifier and converted to scalar measurements of transendothelial impedance, of which resistance was the primary focus. […] For some experiments, total TER was vectorially resolved into components reflecting resistance to current flow beneath the cell layer (α) and resistance to current flow between adjacent cells (Rb) as described in Garcia et al. (2000) supra utilizing the method of Giaiver and Keese which models the endothelial monolayer mathematically (Giaever, I. and Keese, C. R. (1993) Nature 366:591-592). Thus, changes in α reflect alterations in the net state of cell-matrix adhesion, whereas changes in Rb reflect alterations in the integrity of cell-cell adhesion. TER values from each microelectrode were pooled at discrete time points and plotted versus time as the mean±standard error of the mean (Garcia et al. (2000) supra).

Row | Molecule | effect on HGF-induced increases in TER, in words [1] | TER response in words [3] | changes in TER 30 min [3] | changes in TER 60 min [3] | changes in TER 10 min [3] | other results
1 | O=c1cc(N2CCOCC2)oc2c(-c3ccccc3)cccc12 [LY294002, reference compound] | – | – | – | – | – | reduction of HGF-induced increase in TER ([1]; inhibitor pretreatment (LY294002 25 μM; Ro-31-2880 10 μM)): > 50%
2 | C[S+]([O-])c1ccc(-c2nc(-c3ccncc3)c(-c3ccc(F)cc3)[nH]2)cc1 (stereo not shown) [SB203580, reference compound] | significantly blocked | – | – | – | – | effect on HGF-elicited cortical actin ring formation / actin remodeling [2]: significantly attenuated
3 | N#CC(=C(/N)Sc1ccccc1N)/C(C#N)=C(/N)Sc1ccccc1N [UO126, reference compound] | significantly blocked | – | – | – | – | effect on HGF-stimulated ERK activity (p42/44 ERK): completely abolished
4 | Thrombin | – | rapidly decreases TER values which begin to abate after 30 min | −50 ± 4% | −14 ± 4% | +30 ± 3% | –
5 | VEGF | – | early increase in TER, which then falls to produce mild barrier dysfunction | 0% ± 3% | −20 ± 4% | +30 ± 4% | –

Reference: patent publication US20050004029A1, “Methods and compositions for treating vascular leak using hepatocyte growth factor” (priority 2001, published 2005)
